Source: patent US6710088B2 (NPS Pharmaceuticals, Inc., priority 1996, dated 2004)
Where a name gives a salt, the structure may show the parent alone.

Biological target: T1, calcium receptor (Homo sapiens, UniProt P41180)
T1 construct: expressed in transfected cells; host or cells: HEK 293 4.0-7
T1 sequence (P41180 20-1078): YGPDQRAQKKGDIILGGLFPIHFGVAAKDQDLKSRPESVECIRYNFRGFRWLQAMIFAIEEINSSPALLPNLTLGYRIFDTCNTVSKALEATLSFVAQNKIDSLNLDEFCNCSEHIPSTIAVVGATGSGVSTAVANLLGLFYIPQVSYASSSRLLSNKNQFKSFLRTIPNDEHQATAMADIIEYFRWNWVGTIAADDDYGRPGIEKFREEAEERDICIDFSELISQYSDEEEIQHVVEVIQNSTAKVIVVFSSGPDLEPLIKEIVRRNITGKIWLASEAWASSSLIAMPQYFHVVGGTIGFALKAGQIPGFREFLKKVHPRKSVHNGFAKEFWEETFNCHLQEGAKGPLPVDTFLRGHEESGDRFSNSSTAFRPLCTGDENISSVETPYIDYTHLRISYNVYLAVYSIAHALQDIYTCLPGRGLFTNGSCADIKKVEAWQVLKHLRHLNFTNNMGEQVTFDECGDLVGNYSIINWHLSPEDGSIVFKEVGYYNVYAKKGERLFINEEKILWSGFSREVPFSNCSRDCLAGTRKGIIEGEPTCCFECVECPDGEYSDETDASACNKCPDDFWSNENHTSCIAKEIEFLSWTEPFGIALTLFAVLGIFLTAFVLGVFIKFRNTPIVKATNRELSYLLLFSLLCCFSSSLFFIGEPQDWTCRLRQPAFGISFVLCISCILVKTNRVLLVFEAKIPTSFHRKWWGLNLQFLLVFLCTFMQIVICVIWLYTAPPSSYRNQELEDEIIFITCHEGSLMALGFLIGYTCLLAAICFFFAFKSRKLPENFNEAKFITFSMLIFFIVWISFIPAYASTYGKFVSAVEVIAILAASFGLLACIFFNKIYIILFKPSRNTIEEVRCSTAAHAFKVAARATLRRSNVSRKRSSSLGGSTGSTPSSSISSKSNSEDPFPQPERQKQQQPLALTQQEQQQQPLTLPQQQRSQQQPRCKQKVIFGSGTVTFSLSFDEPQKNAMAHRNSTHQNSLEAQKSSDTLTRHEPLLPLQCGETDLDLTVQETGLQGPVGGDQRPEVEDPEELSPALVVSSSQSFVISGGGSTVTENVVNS
Test: Calcium receptor activity in recombinant HEK 293 4.0-7 cells (fluorescence of dye-loaded cells)
Assay type: cell-based
Settings: recombinant HEK 293 4.0-7 cells containing a calcium receptor; 1 mM CaCl2, 1 mM MgCl2; fluorescence 340/510 nm
Procedure: Recombinant HEK 293 4.0-7 cells containing a calcium receptor were constructed as described by Rogers et al., J. Bone Miner. Res. 10 Suppl. 1:S483, 1995 (hereby incorporated by reference herein). The recombinant cells were loaded with fura-2 by incubating the cells in Dulbecco's modified Eagle's medium buffered with 20 mM HEPES containing about 5 μM […] for one hour at room temperature. Cells were then rinsed with Hank's balanced salt solution buffered with 20 mM HEPES containing 1 mM CaCl2 and 1 mM MgCl2. Compounds to be tested were then added to the cells and fluorescence was measured (excitation and emission wavelengths of 340 and 510 nm, respectively).

| Compound | EC50 [nM] |
| --- | --- |
| C[C@@H](NCC=Cc1ccccc1)c1cccc2ccccc12 [Compound 26H, (R)-N-(3-phenyl-2-propenyl)-1-(1-naphthyl)ethylamine hydrochloride] | 36 |
| COc1ccccc1C=CCN[C@H](C)c1cccc2ccccc12 [Compound 26J, hydrochloride] | 47 |
| CC(=Cc1ccccc1)CN[C@H](C)c1cccc2ccccc12 [Compound 26I, (R)-N-(2-methyl-3-phenyl-2-propenyl)-1-(1-naphthyl)ethylamine hydrochloride] | 126 |
| CC[C@@H](N[C@H](C)c1cccc2ccccc12)c1ccc(OC)c(C)c1 [Compound 26F, hydrochloride] | 15 |
| (R,R)-N-(1-Ethyl-4′-methoxy-3′-bromophenyl)-1-(1-naphthyl)ethylamine hydrochloride [Compound 26G] | 11 |
| C[C@@H](N[C@H](C)c1cccc2ccccc12)c1ccc(I)cc1 [Compound 26D, hydrochloride] | 47 |
| CCOc1ccc([C@@H](C)N[C@H](C)c2cccc3ccccc23)cc1C [Compound 26E, hydrochloride] | 77 |
